According to PubChem BioAssay AID248 (DTP/NCI, 2004):
“And” between values parts separate entries of the source, which are not always exact repeats. Equal entries are not always repeated. Toxic doses and inconclusive results are not listed. Cut-off read from the data, not from the text of the source: active = T/C of 150% or more; inactive = T/C below 125%.

System: L1210 leukemia ip in BDF1 mice, survival T/C
Assay: NCI In Vivo Anticancer Drug Screen. Data for tumor model L1210 Leukemia (intraperitoneal) in B6D2F1 (BDF1) mice
Conditions: endpoint: mean survival time, higher = longer survival
Method in brief: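 Value reflects the ratio of survival in compound-treated mice to survival in vehicle-treated controls, with both groups carrying the same transplanted tumor.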

[1] = dose: 100.0 mg/kg/injection, schedule: Q04DX003 (ip), vehicle: Klucel (hydroxypropylcellulose) (HPC)
[2] = dose: 200.0 mg/kg/injection, schedule: Q04DX003 (ip), vehicle: Klucel (hydroxypropylcellulose) (HPC)
[3] = dose: 400.0 mg/kg/injection, schedule: Q04DX003 (ip), vehicle: Klucel (hydroxypropylcellulose) (HPC)
[4] = dose: 100.0 mg/kg/injection, schedule: Q04DX003 (ip), vehicle: saline with Tween-80
[5] = dose: 200.0 mg/kg/injection, schedule: Q04DX003 (ip), vehicle: saline with Tween-80
[6] = dose: 100.0 mg/kg/injection, schedule: Q04DX003 (ip), vehicle: saline
[7] = dose: 200.0 mg/kg/injection, schedule: Q04DX003 (ip), vehicle: saline

Measured: T/C

CCCCCCCCCCOC(=O)C[n+]1cccc(C(N)=O)c1
inactive: dose: 12.5 mg/kg/injection, schedule: Q04DX003 (ip), vehicle: saline 96 % of control | dose: 25.0 mg/kg/injection, schedule: Q04DX003 (ip), vehicle: saline 102 % of control | dose: 50.0 mg/kg/injection, schedule: Q04DX003 (ip), vehicle: saline 93 % of control

C=CCc1ccc(OCCOCCNC2CC3CCC2(C)C3(C)C)c(OC)c1 (stereo unspecified)
inactive: [1] 89 % of control

Nc1nc(-c2ccccc2N=NN2CCOCC2)nc2ccccc12
inactive: [1] 101 % of control | [2] 103 % of control | [3] 101 % of control

Cc1ccc(CNC(=S)Nc2ccccc2)cc1
inactive: dose: 1.56 mg/kg/injection, schedule: Q01DX009 (ip), vehicle: Klucel (hydroxypropylcellulose) (HPC) 107 % of control | dose: 3.12 mg/kg/injection, schedule: Q01DX009 (ip), vehicle: Klucel (hydroxypropylcellulose) (HPC) 104 % of control | dose: 6.25 mg/kg/injection, schedule: Q01DX009 (ip), vehicle: Klucel (hydroxypropylcellulose) (HPC) 96 % of control and 100 % of control | [1] 96 % of control | [2] 96 % of control | [3] 92 % of control

Cc1c2ccccc2c(CCl)c2ccc3ccccc3c12
inactive: dose: 12.5 mg/kg/injection, schedule: Q01DX009 (ip), vehicle: carboxymethylcellulose (CMC) 110 % of control | dose: 25.0 mg/kg/injection, schedule: Q01DX009 (ip), vehicle: carboxymethylcellulose (CMC) 113 % of control

CC(=O)C1(O)CCC2C3CCC4=CC(=O)CCC4(C)C3CC(=O)C21C (stereo unspecified)
inactive: dose: 75.0 mg/kg/injection, schedule: Q01DX001 (ip), vehicle: other 95 % of control | dose: 150.0 mg/kg/injection, schedule: Q01DX001 (ip), vehicle: other 93 % of control | dose: 300.0 mg/kg/injection, schedule: Q01DX001 (ip), vehicle: other 95 % of control

CCCCCC(=O)N1CC(C)OC(C)C1 (stereo unspecified)
inactive: dose: 100.0 mg/kg/injection, schedule: Q04DX002 (ip), vehicle: Klucel (hydroxypropylcellulose) (HPC) 94 % of control | dose: 200.0 mg/kg/injection, schedule: Q04DX002 (ip), vehicle: Klucel (hydroxypropylcellulose) (HPC) 97 % of control | dose: 400.0 mg/kg/injection, schedule: Q04DX002 (ip), vehicle: Klucel (hydroxypropylcellulose) (HPC) 87 % of control

CC(N=CN(C)C)c1cccc2ccccc12 (stereo unspecified)
inactive: dose: 75.0 mg/kg/injection, schedule: Q01DX009 (ip), vehicle: saline with Tween-80 102 % of control | [4] 97 % of control | dose: 150.0 mg/kg/injection, schedule: Q01DX009 (ip), vehicle: saline with Tween-80 112 % of control | [5] 102 % of control | dose: 300.0 mg/kg/injection, schedule: Q01DX009 (ip), vehicle: saline with Tween-80 112 % of control

Cc1ccc(S(=O)(=O)NC(=O)N2CCCC2)cc1
inactive: dose: 50.0 mg/kg/injection, schedule: Q01DX001 (ip), vehicle: saline 109 % of control | dose: 100.0 mg/kg/injection, schedule: Q01DX001 (ip), vehicle: saline 97 % of control | dose: 200.0 mg/kg/injection, schedule: Q01DX001 (ip), vehicle: saline 94 % of control | dose: 400.0 mg/kg/injection, schedule: Q01DX001 (ip), vehicle: saline 88 % of control

COc1ccc(/C=C(/C(=O)c2ccc(OCCN3CCCC3)cc2)c2ccccc2)cc1OC
inactive: dose: 100.0 mg/kg/injection, schedule: Q04DX003 (sc), vehicle: olive oil, sesame oil, peanut oil 101 % of control | dose: 200.0 mg/kg/injection, schedule: Q04DX003 (sc), vehicle: olive oil, sesame oil, peanut oil 98 % of control | dose: 400.0 mg/kg/injection, schedule: Q04DX003 (sc), vehicle: olive oil, sesame oil, peanut oil 97 % of control

C=CC(=O)NC(C)C
inactive: [4] 102 % of control | [5] 104 % of control | dose: 400.0 mg/kg/injection, schedule: Q04DX003 (ip), vehicle: saline with Tween-80 86 % of control

COc1ccc(COC(=O)Oc2ccc(OC)cc2)cc1
inactive: [1] 102 % of control | [2] 98 % of control | [3] 112 % of control

CC(=O)c1ccc(N=Nc2ccc(N(C)C)cc2)cc1
inactive: dose: 100.0 mg/kg/injection, schedule: Q01DX009 (ip), vehicle: carboxymethylcellulose (CMC) 100 % of control and 110 % of control | dose: 100.0 mg/kg/injection, schedule: Q04DX002 (ip), vehicle: carboxymethylcellulose (CMC) 100 % of control | dose: 100.0 mg/kg/injection, schedule: Q04DX003 (ip), vehicle: carboxymethylcellulose (CMC) 100 % of control | dose: 200.0 mg/kg/injection, schedule: Q01DX009 (ip), vehicle: carboxymethylcellulose (CMC) 98 % of control and 102 % of control | dose: 200.0 mg/kg/injection, schedule: Q04DX002 (ip), vehicle: carboxymethylcellulose (CMC) 93 % of control | dose: 200.0 mg/kg/injection, schedule: Q04DX003 (ip), vehicle: carboxymethylcellulose (CMC) 101 % of control | dose: 400.0 mg/kg/injection, schedule: Q01DX009 (ip), vehicle: carboxymethylcellulose (CMC) 95 % of control and 90 % of control | dose: 400.0 mg/kg/injection, schedule: Q04DX002 (ip), vehicle: carboxymethylcellulose (CMC) 88 % of control | dose: 400.0 mg/kg/injection, schedule: Q04DX003 (ip), vehicle: carboxymethylcellulose (CMC) 101 % of control

O=C1N(CCCl)CCN1c1ccccc1
inactive: dose: 100.0 mg/kg/injection, schedule: Q01DX001 (ip), vehicle: Klucel (hydroxypropylcellulose) (HPC) 93 % of control | dose: 100.0 mg/kg/injection, schedule: Q01DX009 (ip), vehicle: Klucel (hydroxypropylcellulose) (HPC) 104 % of control | dose: 200.0 mg/kg/injection, schedule: Q01DX001 (ip), vehicle: Klucel (hydroxypropylcellulose) (HPC) 96 % of control | dose: 200.0 mg/kg/injection, schedule: Q01DX009 (ip), vehicle: Klucel (hydroxypropylcellulose) (HPC) 106 % of control | dose: 400.0 mg/kg/injection, schedule: Q01DX001 (ip), vehicle: Klucel (hydroxypropylcellulose) (HPC) 95 % of control | dose: 400.0 mg/kg/injection, schedule: Q01DX009 (ip), vehicle: Klucel (hydroxypropylcellulose) (HPC) 106 % of control

O=C1Nc2ccccc2C1=Nc1ccc2[nH]c3ccccc3c2c1
inactive: dose: 100.0 mg/kg/injection, schedule: Q01DX001 (ip), vehicle: carboxymethylcellulose (CMC) 91 % of control | dose: 200.0 mg/kg/injection, schedule: Q01DX001 (ip), vehicle: carboxymethylcellulose (CMC) 94 % of control | dose: 400.0 mg/kg/injection, schedule: Q01DX001 (ip), vehicle: carboxymethylcellulose (CMC) 91 % of control

ICC1OC(c2ccccc2)OC2C(CI)OC(c3ccccc3)OC12 (stereo unspecified)
inactive: dose: 75.0 mg/kg/injection, schedule: Q01DX001 (ip), vehicle: carboxymethylcellulose (CMC) 95 % of control | dose: 150.0 mg/kg/injection, schedule: Q01DX001 (ip), vehicle: carboxymethylcellulose (CMC) 93 % of control | dose: 300.0 mg/kg/injection, schedule: Q01DX001 (ip), vehicle: carboxymethylcellulose (CMC) 88 % of control

C=C(Br)CNC(=O)OCCCC
inactive: dose: 12.5 mg/kg/injection, schedule: Q01DX009 (ip), vehicle: saline with Tween-80 94 % of control | dose: 25.0 mg/kg/injection, schedule: Q01DX009 (ip), vehicle: saline with Tween-80 100 % of control | dose: 50.0 mg/kg/injection, schedule: Q01DX009 (ip), vehicle: saline with Tween-80 98 % of control | [6] 94 % of control | [7] 102 % of control

CCCCCc1ccc(C(C)=O)cc1
inactive: [6] 100 % of control | [7] 114 % of control | dose: 400.0 mg/kg/injection, schedule: Q04DX003 (ip), vehicle: saline 114 % of control

CCOC(=O)C1CN(C2CCCCC2)CCC1=O (stereo unspecified)
inactive: dose: 18.75 mg/kg/injection, schedule: Q01DX009 (ip), vehicle: saline 93 % of control | dose: 37.5 mg/kg/injection, schedule: Q01DX009 (ip), vehicle: saline 92 % of control | dose: 37.5 mg/kg/injection, schedule: Q04DX003 (ip), vehicle: saline 98 % of control | dose: 75.0 mg/kg/injection, schedule: Q01DX001 (ip), vehicle: saline 102 % of control | dose: 75.0 mg/kg/injection, schedule: Q01DX009 (ip), vehicle: saline 93 % of control | dose: 75.0 mg/kg/injection, schedule: Q04DX003 (ip), vehicle: saline 100 % of control | dose: 150.0 mg/kg/injection, schedule: Q01DX001 (ip), vehicle: saline 95 % of control | dose: 150.0 mg/kg/injection, schedule: Q04DX003 (ip), vehicle: saline 94 % of control
